Laboratory results reported in patent publication US20250115669A1, “FGFR1/KLB Targeting Agonistic Antigen-Binding Proteins and Conjugates Thereof with GLP-1R Agonistic Peptides” (SANOFI, priority 2020, published 2025).
Peptide text beside a SMILES is read from it.

Columns and labels:
Format in all cases: cell-based
human GIP receptor = target: T1, human GIP receptor (Homo sapiens, UniProt P48546); assay: HTRF cAMP assay in HEK-293 cells expressing human GIP receptor; conditions: HEK-293 cells; read-out: HTRF cAMP EC50 Human GIPR
T1 construct: expressed in transfected cells; host or cells: PSC-HEK-293
T1 sequence (P48546 22-466): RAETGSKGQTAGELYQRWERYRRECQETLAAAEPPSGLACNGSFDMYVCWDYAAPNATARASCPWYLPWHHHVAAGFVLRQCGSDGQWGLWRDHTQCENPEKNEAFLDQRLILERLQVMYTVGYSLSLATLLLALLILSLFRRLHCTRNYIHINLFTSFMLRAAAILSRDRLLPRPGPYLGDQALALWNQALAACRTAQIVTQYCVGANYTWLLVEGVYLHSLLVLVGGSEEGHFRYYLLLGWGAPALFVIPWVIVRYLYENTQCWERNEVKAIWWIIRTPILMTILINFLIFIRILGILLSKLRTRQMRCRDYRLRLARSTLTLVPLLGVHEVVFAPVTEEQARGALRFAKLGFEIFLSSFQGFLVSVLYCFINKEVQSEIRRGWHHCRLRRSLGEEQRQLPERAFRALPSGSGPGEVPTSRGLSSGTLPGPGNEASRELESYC

[1] = target: T2, human glucagon (GCG) receptor (Homo sapiens, UniProt P47871); assay: HTRF cAMP assay in HEK-293 cells expressing human glucagon receptor; conditions: HEK-293 cells; read-out: HTRF cAMP EC50 Human GCGR
T2 construct: expressed in transfected cells; host or cells: PSC-HEK-293
T2 sequence (P47871 26-477): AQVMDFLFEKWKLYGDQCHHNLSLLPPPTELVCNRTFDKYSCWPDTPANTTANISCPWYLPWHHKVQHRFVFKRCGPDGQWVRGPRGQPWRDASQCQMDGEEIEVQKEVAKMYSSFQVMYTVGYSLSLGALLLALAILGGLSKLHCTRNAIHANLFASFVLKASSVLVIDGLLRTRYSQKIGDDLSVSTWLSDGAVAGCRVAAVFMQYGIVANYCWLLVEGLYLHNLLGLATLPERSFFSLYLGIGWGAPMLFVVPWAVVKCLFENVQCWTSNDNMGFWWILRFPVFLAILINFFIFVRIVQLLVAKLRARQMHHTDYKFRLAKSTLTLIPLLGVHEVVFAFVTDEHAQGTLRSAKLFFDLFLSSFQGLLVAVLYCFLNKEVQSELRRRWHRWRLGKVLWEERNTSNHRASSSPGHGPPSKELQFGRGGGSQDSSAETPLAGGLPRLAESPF

human GLP-1 receptor = target: T3, human GLP-1 receptor (Homo sapiens, UniProt P43220); assay: HTRF cAMP assay in HEK-293 cells expressing human GLP-1 receptor; conditions: HEK-293 cells; read-out: HTRF cAMP EC50 Human GLP-1R
T3 construct: expressed in transfected cells; host or cells: PSC-HEK-293
T3 sequence (P43220 24-463): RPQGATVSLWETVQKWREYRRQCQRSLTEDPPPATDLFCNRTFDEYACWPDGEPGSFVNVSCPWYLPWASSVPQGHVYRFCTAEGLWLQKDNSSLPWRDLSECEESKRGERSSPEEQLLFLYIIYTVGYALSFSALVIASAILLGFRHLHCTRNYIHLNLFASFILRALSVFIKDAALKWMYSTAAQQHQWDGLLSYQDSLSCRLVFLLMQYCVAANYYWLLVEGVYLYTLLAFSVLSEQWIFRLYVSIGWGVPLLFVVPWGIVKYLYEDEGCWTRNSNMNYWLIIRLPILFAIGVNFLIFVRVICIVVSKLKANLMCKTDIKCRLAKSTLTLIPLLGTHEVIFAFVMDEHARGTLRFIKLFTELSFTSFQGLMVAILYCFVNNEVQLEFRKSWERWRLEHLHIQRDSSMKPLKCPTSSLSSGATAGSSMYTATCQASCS

| Structure (SMILES) | EC50 (human GIP receptor) | EC50 [1] | EC50 (human GLP-1 receptor) |
| --- | --- | --- | --- |
| CC[C@H](C)[C@H](NC(=O)[C@H](Cc1ccccc1)NC(=O)[C@H](CC(C)C)NC(=O)[C@H](CCC(N)=O)NC(=O)[C@@H](NC(=O)[C@H](C)NC(=O)[C@H](CCC(=O)O)NC(=O)[C@H](CCC(=O)O)NC(=O)[C@H](CCC(=O)O)NC(=O)[C@H](CC(C)C)NC(=O)[C@H](CCC(N)=O)NC(=O)[C@H](CCCCN)NC(=O)[C@H](CO)NC(=O)[C@H](CC(C)C)NC(=O)[C@H](CC(=O)O)NC(=O)[C@H](CO)NC(=O)[C@@H](NC(=O)[C@H](Cc1ccccc1)NC(=O)[C@@H](NC(=O)CNC(=O)[C@H](CCC(=O)O)NC(=O)CNC(=O)[C@H](Cc1c[nH]cn1)NC(=O)CN)[C@@H](C)O)[C@@H](C)O)C(C)C)C(=O)N[C@@H](CCC(=O)O)C(=O)N[C@@H](Cc1c[nH]c2ccccc12)C(=O)N[C@@H](CC(C)C)C(=O)N[C@@H](CCCCN)C(=O)N[C@@H](C)C(=O)NCC(=O)NCC(=O)N1CCC[C@H]1C(=O)N[C@@H](CO)C(=O)N[C@@H](CO)C(=O)NCC(=O)N[C@@H](CCCCN)C(=O)N1CCC[C@H]1C(=O)N1CCC[C@H]1C(=O)N1CCC[C@H]1C(=O)N[C@@H](CCCCN)C(N)=O [Ab P038] (H-GHGEGTFTSDLSKQLEEEAVQLFIEWLKAGGPSSGKPPPK-NH2; N-terminus assumed) | > 10 nM | > 10 nM | 0.0524 nM |
| CC[C@H](C)[C@H](NC(=O)[C@H](Cc1ccccc1)NC(=O)[C@H](CC(C)C)NC(=O)[C@H](CCCNC(=N)N)NC(=O)[C@@H](NC(=O)[C@H](C)NC(=O)[C@H](CCC(=O)O)NC(=O)[C@H](CCC(=O)O)NC(=O)[C@H](CCC(=O)O)NC(=O)[C@H](CC(C)C)NC(=O)[C@H](CCC(N)=O)NC(=O)[C@H](CCCCN)NC(=O)[C@H](CO)NC(=O)[C@H](CCCCN)NC(=O)[C@H](CC(=O)O)NC(=O)[C@H](CO)NC(=O)[C@@H](NC(=O)[C@H](Cc1ccccc1)NC(=O)[C@@H](NC(=O)CNC(=O)[C@H](CCC(=O)O)NC(=O)CNC(=O)[C@H](Cc1c[nH]cn1)NC(=O)CN)[C@@H](C)O)[C@@H](C)O)C(C)C)C(=O)N[C@@H](C)C(=O)N[C@@H](Cc1c[nH]c2ccccc12)C(=O)N[C@@H](CC(C)C)C(=O)N[C@H](C(=O)N[C@@H](CCCCN)C(N)=O)C(C)C [Ab P040] (H-GHGEGTFTSDKSKQLEEEAVRLFIAWLVK-NH2; N-terminus assumed) | > 10 nM | > 10 nM | 0.0627 nM |

Second part, the molecule after the results:

| EC50 (human GIP receptor) | EC50 [1] | EC50 (human GLP-1 receptor) | Structure (SMILES) |
| --- | --- | --- | --- |
| 1.6 nM | 0.545 nM | 0.0016 nM | CC[C@H](C)[C@H](NC(=O)[C@H](CC(C)C)NC(=O)[C@H](Cc1c[nH]c2ccccc12)NC(=O)[C@H](Cc1ccc(O)cc1)NC(=O)[C@@H](NC(=O)[C@H](Cc1ccccc1)NC(=O)[C@H](CC(C)C)NC(=O)[C@H](CCCNC(=N)N)NC(=O)[C@H](CCC(N)=O)NC(=O)[C@H](CC(C)C)NC(=O)[C@H](CCCNC(=N)N)NC(=O)[C@H](CCCCN)NC(=O)[C@H](CCC(=O)O)NC(=O)[C@H](CC(C)C)NC(=O)[C@H](CCC(N)=O)NC(=O)[C@H](CCCCN)NC(=O)[C@H](CO)NC(=O)[C@H](CC(C)C)NC(=O)[C@H](CC(=O)O)NC(=O)[C@H](CO)NC(=O)[C@@H](NC(=O)[C@H](Cc1ccccc1)NC(=O)[C@@H](NC(=O)CNC(=O)[C@H](CCC(=O)O)NC(=O)CNC(=O)[C@@H](N)Cc1c[nH]cn1)[C@@H](C)O)[C@@H](C)O)[C@@H](C)CC)C(=O)N[C@@H](C)C(=O)NCC(=O)NCC(=O)N[C@@H](Cc1c[nH]cn1)C(=O)N[C@@H](CO)C(=O)N[C@@H](CO)C(=O)NCC(=O)N[C@@H](CCCCN)C(=O)N1CCC[C@H]1C(=O)N1CCC[C@H]1C(=O)N1CCC[C@H]1C(=O)N[C@@H](CCCCN)C(N)=O [Ab P025] (H-HGEGTFTSDLSKQLEKRLQRLFIYWLIAGGHSSGKPPPK-NH2; N-terminus assumed) |
| 2.48 nM | 3.9 nM | 0.002 nM | CC[C@H](C)[C@H](NC(=O)[C@H](Cc1ccccc1)NC(=O)[C@H](CC(C)C)NC(=O)[C@H](CCCNC(=N)N)NC(=O)[C@H](CCC(N)=O)NC(=O)[C@H](CC(C)C)NC(=O)[C@H](CCCNC(=N)N)NC(=O)[C@H](CCCCN)NC(=O)[C@H](CCC(=O)O)NC(=O)[C@H](CC(C)C)NC(=O)[C@H](CCC(N)=O)NC(=O)[C@H](CCCCN)NC(=O)[C@H](CO)NC(=O)[C@H](CC(C)C)NC(=O)[C@H](CC(=O)O)NC(=O)[C@H](CO)NC(=O)[C@@H](NC(=O)[C@H](Cc1ccccc1)NC(=O)[C@@H](NC(=O)CNC(=O)[C@H](CCC(=O)O)NC(=O)CNC(=O)[C@@H](N)Cc1c[nH]cn1)[C@@H](C)O)[C@@H](C)O)C(=O)N[C@@H](Cc1ccc(O)cc1)C(=O)N[C@@H](Cc1c[nH]c2ccccc12)C(=O)N[C@@H](CC(C)C)C(=O)N[C@@H](CCCCN)C(=O)N[C@@H](C)C(=O)NCC(=O)NCC(=O)N[C@@H](Cc1c[nH]cn1)C(=O)N[C@@H](CO)C(=O)N[C@@H](CO)C(=O)NCC(=O)N[C@@H](CCCCN)C(=O)N1CCC[C@H]1C(=O)N1CCC[C@H]1C(=O)N1CCC[C@H]1C(=O)N[C@@H](CCCCN)C(N)=O [Ab P026] (H-HGEGTFTSDLSKQLEKRLQRLFIYWLKAGGHSSGKPPPK-NH2; N-terminus assumed) |
| > 10 nM | > 10 nM | 0.125 nM | CC[C@H](C)[C@H](NC(=O)[C@H](Cc1ccccc1)NC(=O)[C@H](CC(C)C)NC(=O)[C@H](CCCNC(=N)N)NC(=O)[C@H](CCC(N)=O)NC(=O)[C@H](C)NC(=O)[C@H](CCC(=O)O)NC(=O)[C@H](CCC(=O)O)NC(=O)[C@H](CCC(=O)O)NC(=O)[C@H](CC(C)C)NC(=O)[C@H](CCC(N)=O)NC(=O)[C@H](CCCCN)NC(=O)[C@H](CO)NC(=O)[C@H](CC(C)C)NC(=O)[C@H](CC(=O)O)NC(=O)[C@H](CO)NC(=O)[C@@H](NC(=O)[C@H](Cc1ccccc1)NC(=O)[C@@H](NC(=O)CNC(=O)[C@H](CCC(=O)O)NC(=O)CNC(=O)[C@H](Cc1c[nH]cn1)NC(=O)CN)[C@@H](C)O)[C@@H](C)O)C(=O)N[C@@H](CCC(=O)O)C(=O)N[C@@H](Cc1c[nH]c2ccccc12)C(=O)N[C@@H](CC(C)C)C(=O)N[C@@H](CCCCN)C(=O)N[C@@H](C)C(=O)NCC(=O)NCC(=O)N1CCC[C@H]1C(=O)N[C@@H](CO)C(=O)N[C@@H](CO)C(=O)NCC(=O)N[C@@H](CCCCN)C(=O)N1CCC[C@H]1C(=O)N1CCC[C@H]1C(=O)N1CCC[C@H]1C(=O)N[C@@H](CCCCN)C(N)=O [Ab P036] (H-GHGEGTFTSDLSKQLEEEAQRLFIEWLKAGGPSSGKPPPK-NH2; N-terminus assumed) |
| > 10 nM | > 10 nM | 0.158 nM | CC[C@H](C)[C@H](NC(=O)[C@H](Cc1ccccc1)NC(=O)[C@H](CC(C)C)NC(=O)[C@H](Cc1c[nH]cn1)NC(=O)[C@H](CCC(N)=O)NC(=O)[C@H](C)NC(=O)[C@H](CCC(=O)O)NC(=O)[C@H](CCC(=O)O)NC(=O)[C@H](CCC(=O)O)NC(=O)[C@H](CC(C)C)NC(=O)[C@H](CCC(N)=O)NC(=O)[C@H](CCCCN)NC(=O)[C@H](CO)NC(=O)[C@H](CC(C)C)NC(=O)[C@H](CC(=O)O)NC(=O)[C@H](CO)NC(=O)[C@@H](NC(=O)[C@H](Cc1ccccc1)NC(=O)[C@@H](NC(=O)CNC(=O)[C@H](CCC(=O)O)NC(=O)CNC(=O)[C@H](Cc1c[nH]cn1)NC(=O)CN)[C@@H](C)O)[C@@H](C)O)C(=O)N[C@@H](CCC(=O)O)C(=O)N[C@@H](Cc1c[nH]c2ccccc12)C(=O)N[C@@H](CC(C)C)C(=O)N[C@@H](CCCCN)C(=O)N[C@@H](C)C(=O)NCC(=O)NCC(=O)N1CCC[C@H]1C(=O)N[C@@H](CO)C(=O)N[C@@H](CO)C(=O)NCC(=O)N[C@@H](CCCCN)C(=O)N1CCC[C@H]1C(=O)N1CCC[C@H]1C(=O)N1CCC[C@H]1C(=O)N[C@@H](CCCCN)C(N)=O [Ab P037] (H-GHGEGTFTSDLSKQLEEEAQHLFIEWLKAGGPSSGKPPPK-NH2; N-terminus assumed) |
